Source: US20060128792A1, “Deguelin as a chemopreventive agent for lung cancer” (priority 2002, published 2006)
“And” between values parts separate entries of the source, which are not always exact repeats. Identical values can stand only once.

Columns and labels:
Test in all cases: MTT assay, growth inhibition by deguelin or deguelin derivatives
Format in all cases: cell-based
Details in all cases: 3 days; for % control: control = 1
H596 = test system: H596
H1299 = test system: H1299
H460 = test system: H460
A549 = test system: A549

## COc1cc2c(cc1OC)C1C(=O)c3ccc4c(c3OC1CO2)CCC(C)(C)O4 (stereo not drawn) [Drug 11]
H596; H596, 0.01 μM
  Average (MTT assay reading): 1.262
  MTT assay reading, replicate well: 1.286 and 1.422 and 1.376 and 1.041 and 1.247 and 1.293 and 1.168
  % control: 0.76
H596; H596, 0.1 μM
  Average (MTT assay reading): 0.6487
  MTT assay reading, replicate well: 0.677 and 0.894 and 0.729 and 0.59 and 0.476 and 0.579 and 0.596
  % control: 0.39
H596; H596, 0.5 μM
  Average (MTT assay reading): 0.4131
  MTT assay reading, replicate well: 0.469 and 0.448 and 0.439 and 0.322 and 0.282 and 0.424 and 0.508
  % control: 0.25
H596; H596, 1 μM
  Average (MTT assay reading): 0.4389
  MTT assay reading, replicate well: 0.385 and 0.377 and 0.447 and 0.585 and 0.404 and 0.429 and 0.445
  % control: 0.26
H1299; H1299, 0.01 μM
  Average (MTT assay reading): 0.5019
  MTT assay reading, replicate well: 0.573 and 0.553 and 0.567 and 0.483 and 0.493 and 0.424 and 0.42
  % control: 0.65
H1299; H1299, 0.1 μM
  Average (MTT assay reading): 0.2847
  MTT assay reading, replicate well: 0.302 and 0.338 and 0.317 and 0.271 and 0.215 and 0.272 and 0.278
  % control: 0.37
H1299; H1299, 0.5 μM
  Average (MTT assay reading): 0.3656
  MTT assay reading, replicate well: 0.275 and 0.579 and 0.324 and 0.32 and 0.398 and 0.294 and 0.369
  % control: 0.48
H1299; H1299, 1 μM
  Average (MTT assay reading): 0.2179
  MTT assay reading, replicate well: 0.157 and 0.202 and 0.236 and 0.233 and 0.217 and 0.262 and 0.218
  % control: 0.28
H460; H460, 0.01 μM
  Average (MTT assay reading): 0.6664
  MTT assay reading, replicate well: 0.67 and 0.672 and 0.578 and 0.697 and 0.719 and 0.651 and 0.678
  % control: 0.57
H460; H460, 0.1 μM
  Average (MTT assay reading): 0.3214
  MTT assay reading, replicate well: 0.352 and 0.354 and 0.375 and 0.234 and 0.26 and 0.303 and 0.372
  % control: 0.27
H460; H460, 0.5 μM
  Average (MTT assay reading): 0.3358
  MTT assay reading, replicate well: 0.372 and 0.35 and 0.36 and 0.296 and 0.2577 and 0.283 and 0.432
  % control: 0.29
H460; H460, 1 μM
  Average (MTT assay reading): 0.3296
  MTT assay reading, replicate well: 0.314 (2×) and 0.376 and 0.344 and 0.302 and 0.291 and 0.366
  % control: 0.28
A549; A549, 0.01 μM
  Average (MTT assay reading): 0.7456
  MTT assay reading, replicate well: 0.779 and 0.766 and 0.723 and 0.736 and 0.77 and 0.75 and 0.695
  % control: 1.29
A549; A549, 0.1 μM
  Average (MTT assay reading): 0.3701
  MTT assay reading, replicate well: 0.343 and 0.313 and 0.358 and 0.362 and 0.405 and 0.375 and 0.435
  % control: 0.64
A549; A549, 0.5 μM
  Average (MTT assay reading): 0.4303
  MTT assay reading, replicate well: 0.355 and 0.444 and 0.514 and 0.418 and 0.47 and 0.413 and 0.398
  % control: 0.75
A549; A549, 1 μM
  Average (MTT assay reading): 0.345
  MTT assay reading, replicate well: 0.303 and 0.302 and 0.313 and 0.359 and 0.422 and 0.316 and 0.4
  % control: 0.60

## COc1cc2c(cc1OC)C1C(=O)c3ccc4c(c3OC1CO2)CC([Se]c1ccccc1)C(C)(C)O4 (stereo not drawn) [Drug 12]
H596; H596, 0.01 μM
  Average (MTT assay reading): 1.421
  MTT assay reading, replicate well: 1.468 and 1.111 and 1.465 and 1.374 and 1.701 and 1.481 and 1.344
  % control: 0.86
H596; H596, 0.1 μM
  Average (MTT assay reading): 1.683
  MTT assay reading, replicate well: 1.911 and 1.663 and 1.92 and 1.666 and 1.398 and 1.603 and 1.623
  % control: 1.01
H596; H596, 0.5 μM
  Average (MTT assay reading): 1.737
  MTT assay reading, replicate well: 1.686 and 1.82 and 1.177 and 1.899 and 1.872 and 2.048 and 1.655
  % control: 1.05
H596; H596, 1 μM
  Average (MTT assay reading): 1.531
  MTT assay reading, replicate well: 1.143 and 1.448 and 1.604 and 1.637 and 1.497 and 1.557 and 1.828
  % control: 0.92
H1299; H1299, 0.01 μM
  Average (MTT assay reading): 0.5509
  MTT assay reading, replicate well: 0.513 and 0.438 and 0.626 and 0.426 and 0.609 and 0.729 and 0.515
  % control: 0.72
H1299; H1299, 0.1 μM
  Average (MTT assay reading): 0.4999
  MTT assay reading, replicate well: 0.514 and 0.55 and 0.568 and 0.409 and 0.465 and 0.466 and 0.527
  % control: 0.65
H1299; H1299, 0.5 μM
  Average (MTT assay reading): 0.628
  MTT assay reading, replicate well: 0.637 and 0.549 and 0.636 and 0.614 and 0.847 and 0.655 and 0.458
  % control: 0.82
H1299; H1299, 1 μM
  Average (MTT assay reading): 0.4001
  MTT assay reading, replicate well: 0.434 and 0.41 and 0.413 and 0.451 and 0.378 and 0.357 and 0.358
  % control: 0.52
H460; H460, 0.01 μM
  Average (MTT assay reading): 0.7451
  MTT assay reading, replicate well: 0.763 and 0.753 and 0.691 and 0.648 and 0.765 and 0.774 and 0.822
  % control: 0.64
H460; H460, 0.1 μM
  Average (MTT assay reading): 0.721
  MTT assay reading, replicate well: 0.603 and 0.593 and 0.691 and 0.781 and 0.732 and 0.815 and 0.832
  % control: 0.62
H460; H460, 0.5 μM
  Average (MTT assay reading): 0.7127
  MTT assay reading, replicate well: 0.621 and 0.714 and 0.653 and 0.739 and 0.77 and 0.758 and 0.734
  % control: 0.61
H460; H460, 1 μM
  Average (MTT assay reading): 0.7406
  MTT assay reading, replicate well: 0.709 and 0.659 and 0.698 and 0.79 and 0.717 and 0.805 and 0.806
  % control: 0.63
A549; A549, 0.01 μM
  Average (MTT assay reading): 0.6226
  MTT assay reading, replicate well: 0.58 and 0.633 and 0.616 and 0.636 and 0.715 and 0.577 and 0.601
  % control: 1.08
A549; A549, 0.1 μM
  Average (MTT assay reading): 0.6147
  MTT assay reading, replicate well: 0.604 and 0.545 and 0.597 and 0.519 and 0.606 and 0.719 and 0.713
  % control: 1.06
A549; A549, 0.5 μM
  Average (MTT assay reading): 0.5669
  MTT assay reading, replicate well: 0.533 and 0.614 and 0.532 and 0.584 and 0.567 and 0.553 and 0.585
  % control: 0.98
A549; A549, 1 μM
  Average (MTT assay reading): 0.5701
  MTT assay reading, replicate well: 0.534 and 0.536 and 0.557 and 0.571 and 0.586 (2×) and 0.621
  % control: 0.99
